# Experiments:
# [1] = Systemic blood pressure study in ambulatory MCT treated rats; format: in vivo, rat; conditions: inhalation
# Experimental: Systemic blood pressure study. The effect of PK10453 (Structure 2) on systemic BP was studied in ambulatory MCT treated rats with DSI PAC40 transmitters implanted in the descending aorta. […] Blood pressure was recorded before each morning dose.
# STAT3 = assay: NanoPro immunoassay pSTAT3/STAT3 in lung extracts, MCT+PN model; format: in vivo, rat; conditions: D4 and D8 groups compared to vehicle
# Source text: (§1) Histology and morphometric analysis. At the end of the study, the heart and lungs were removed from ventilated animals under general anesthesia. Heparinized saline was infused under pressure through the main pulmonary artery. The right upper lobe was immediately tied off and placed in liquid nitrogen for Western blot and NanoPro 100 ™ assay analysis. The heart was removed, and the RV free wall, interventricular septum and LV free wall dissected and weighed. Buffered formalin (10%) was infused under pressure both through the pulmonary artery and the trachea. Morphometric analysis was performed on H&E stained formalin fixed tissue sectioned at 8 μm. The media area and lumen area of pulmonary arterioles were measured with Image J software by a technician blinded to treatment group. Measurements were made on 20 pulmonary arterioles per section. The ratio of the lumen area to the total media area was determined This ratio normalizes the variation in total pulmonary arteriole area. […]
# (§2) NanoPro Immunoassay™. Relative differences in phosphorylated ERK1/2 and STAT isoforms were measured with a NanoPro100™ immunoassay system (Protein Simple/Cell Biosciences, CA). […]
# PDGFRbeta = PDGFRbeta (Homo sapiens, UniProt P09619); assay: biochemical
# Experimental: (§3) In vitro kinase assay. A Z-lyte kinase assay was performed to determine the inhibition of PDGFRalpha and PDGFRbeta mediated phosphorylation by PK10453 (Structure 2). Ten point titration curves were modeled to calculate the IC50 (Invitrogen Select Screen®).
# PDGFRalpha = PDGFRalpha (Homo sapiens, UniProt P16234); assay: biochemical
# Experimental: as §3
# [2] = system: PDGFAA stimulated phosphorylation of ERK1 and ERK2; assay: PDGFAA stimulated phosphorylation of ERK1 and ERK2 in human fetal lung fibroblasts; format: cell-based; conditions: 1 uM
# [3] = Pharmacokinetic study, lung and plasma levels after inhalation or IV; format: in vivo, rat
# Experimental: Pharmacokinetic studies. PK10453 (Structure 2) was administered intravenously or by inhalation to animals, which were then euthanized at time 0, 10, 20, and 60 min (n=3 each time point). Blood samples were taken by cardiac puncture, and the lungs excised. The lungs were homogenized and PK10453 (Structure 2) extracted with a 1:3 mixture of acetonitrile:methanol. Similarly, plasma was extracted with a 1:3 mixture of acetonitrile:methanol. Drug was assayed by LC MS/MS (PharmOptima Inc., Portage Mich.). First order exponential curves were fit to the data with Excel. AUC was determined with the trapezoidal method of integration.
# For the pharmacokinetic study, the concentration of PK10453 (Structure 2) in lung when administered by inhalation was compared to the concentration achieved with IV administration. As described in Morén “Aerosols in medicine : principles, diagnosis, and therapy.” Amsterdam; New York: Elsevier. (1993) and Phalen et al., “Inhalation exposure methodology.” Environ Health Perspect 56:23-34 (1984)), it is possible to estimate the pharmacokinetic advantage of inhalation relative to intravenous administration, Rd, by comparing the AUC of a plot of the drug concentration as a function of time following respiratory and IV administration: Rd=[(AUClung/AUCplasma)respiratory]/[(AUClung/AUCplasma)IV]
# rat MCT+PN model [4] = assay: RV pressure, PV loops, RV hypertrophy and morphometry in the rat MCT+PN model; format: in vivo; conditions: for ESV: PV loop, second part of Table 3
# Experimental: Measurement of PV loops. In a separate cohort of animals, the MCT+PN model was developed as described above, and PK10453 (Structure 2) was then administered for 4 or 8 min three times a day to the drug treated group. The vehicle control group underwent 4 min exposures three times a day. Pressure Volume (PV) loops were obtained with an admittance system (Scisense, Inc.) after 14 days of treatment, while rats were under general anesthesia with isoflurane and 100% FiO2. Also, or in the alternative, RV pressures were obtained in each group after 14 days of treatment. In a subset of each group, pressure Volume (PV) loops were obtained with an admittance system (high fidelity catheter FTE1918B, Scisense, Inc.) after 14 days of treatment. After induction of general anesthesia and intubation via tracheostomy, the rats were placed on a pressure controlled ventilator (TOPOVENT). General anesthesia consisted of isoflurane and 100% FiO2 with peak inspiratory pressure set at 18 cm, and PEEP 5 cm H2O. A left thoracotomy was performed with admittance catheter in the RV via the RV outflow tract.
# as §1
# AKT = assay: NanoPro immunoassay pAKT/AKT in lung extracts, MCT+PN model; format: in vivo, rat
# [5] = system: PDGFAA stimulated AKT phosphorylation; assay: In cell Western (ICW), PDGFAA stimulated AKT phosphorylation in human fetal lung fibroblasts; format: cell-based; conditions: comparison in words
# Experimental: In cell Western (ICW). […] HLFs were maintained in subculture at no more than 6 passages in DMEM with 5% FBS and 4 mM Glutamax at 37° C., 5% CO2. HLFs were plated and grown to 70-80% confluence in 96 well plates then serum-starved for 48 hours. […] After washing, the signal was quantified using an Odyssey Infrared Imaging System (LI-COR). Phosphoprotein signal (800 nm) was normalized to total protein signal (700 nm) acquired from each well and experimental duplicates on same plate were averaged and reported.
# rat MCT+PN model [6] = assay: Telemetry study of PA pressure in the rat MCT+PN model; format: in vivo; conditions: by inhalation
# Experimental: Efficacy study in the rat MCT+PN model. Pneumonectomy and implantation of a TRM53P telemetry monitor in the pulmonary artery (Telemetry Research, New Zealand and ADlnstruments, Colorado) was carried out in rats. Two weeks after MCT, PK10453 (Structure 2) was administered three times daily for 1 week. […] Sampling of PA pressure was performed 5 min before each morning dose in ambulatory animals in room air (estimated atmospheric pressure 716 mm Hg based on elevation of animal facility). […] Telemetry data was obtained for 10 min daily before each morning dose for this protocol.
# [7] = Body weight of treated subjects; format: in vivo, rat; conditions: treated vs. vehicle groups
# ERK1/2 = assay: NanoPro immunoassay pERK1/2 in lung homogenates, MCT+PN model; format: in vivo, rat; conditions: D4 and D8 groups compared to vehicle
# Source text: as §1, §2
# Chain of PDGFRbeta (P09619 33-1106): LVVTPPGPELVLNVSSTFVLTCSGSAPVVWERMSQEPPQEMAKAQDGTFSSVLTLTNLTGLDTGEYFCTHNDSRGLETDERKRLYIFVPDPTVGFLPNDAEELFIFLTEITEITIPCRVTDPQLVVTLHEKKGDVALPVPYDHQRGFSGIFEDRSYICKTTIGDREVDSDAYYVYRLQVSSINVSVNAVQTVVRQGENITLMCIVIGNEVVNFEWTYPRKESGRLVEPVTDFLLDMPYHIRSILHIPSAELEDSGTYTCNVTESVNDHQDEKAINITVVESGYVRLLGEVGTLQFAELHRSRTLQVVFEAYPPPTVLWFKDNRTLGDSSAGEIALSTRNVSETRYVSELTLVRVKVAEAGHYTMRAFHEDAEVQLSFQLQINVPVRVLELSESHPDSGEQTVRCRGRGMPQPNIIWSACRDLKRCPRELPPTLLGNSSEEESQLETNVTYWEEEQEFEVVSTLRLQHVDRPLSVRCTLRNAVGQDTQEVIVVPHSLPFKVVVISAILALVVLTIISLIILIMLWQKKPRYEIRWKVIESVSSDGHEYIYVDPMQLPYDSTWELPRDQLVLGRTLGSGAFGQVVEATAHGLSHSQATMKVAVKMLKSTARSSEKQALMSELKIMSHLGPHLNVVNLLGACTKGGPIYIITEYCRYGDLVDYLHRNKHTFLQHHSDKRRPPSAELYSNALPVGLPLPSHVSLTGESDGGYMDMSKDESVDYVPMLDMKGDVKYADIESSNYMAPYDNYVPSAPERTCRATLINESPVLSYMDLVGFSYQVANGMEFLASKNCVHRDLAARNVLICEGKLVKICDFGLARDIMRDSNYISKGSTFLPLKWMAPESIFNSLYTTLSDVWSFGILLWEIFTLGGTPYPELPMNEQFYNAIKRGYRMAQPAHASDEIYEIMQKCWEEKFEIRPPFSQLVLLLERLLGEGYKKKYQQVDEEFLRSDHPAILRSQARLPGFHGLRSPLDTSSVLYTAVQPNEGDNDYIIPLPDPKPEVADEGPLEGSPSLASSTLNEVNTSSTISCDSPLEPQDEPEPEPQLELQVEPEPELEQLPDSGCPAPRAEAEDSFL
# Chain of PDGFRalpha (P16234 24-1089): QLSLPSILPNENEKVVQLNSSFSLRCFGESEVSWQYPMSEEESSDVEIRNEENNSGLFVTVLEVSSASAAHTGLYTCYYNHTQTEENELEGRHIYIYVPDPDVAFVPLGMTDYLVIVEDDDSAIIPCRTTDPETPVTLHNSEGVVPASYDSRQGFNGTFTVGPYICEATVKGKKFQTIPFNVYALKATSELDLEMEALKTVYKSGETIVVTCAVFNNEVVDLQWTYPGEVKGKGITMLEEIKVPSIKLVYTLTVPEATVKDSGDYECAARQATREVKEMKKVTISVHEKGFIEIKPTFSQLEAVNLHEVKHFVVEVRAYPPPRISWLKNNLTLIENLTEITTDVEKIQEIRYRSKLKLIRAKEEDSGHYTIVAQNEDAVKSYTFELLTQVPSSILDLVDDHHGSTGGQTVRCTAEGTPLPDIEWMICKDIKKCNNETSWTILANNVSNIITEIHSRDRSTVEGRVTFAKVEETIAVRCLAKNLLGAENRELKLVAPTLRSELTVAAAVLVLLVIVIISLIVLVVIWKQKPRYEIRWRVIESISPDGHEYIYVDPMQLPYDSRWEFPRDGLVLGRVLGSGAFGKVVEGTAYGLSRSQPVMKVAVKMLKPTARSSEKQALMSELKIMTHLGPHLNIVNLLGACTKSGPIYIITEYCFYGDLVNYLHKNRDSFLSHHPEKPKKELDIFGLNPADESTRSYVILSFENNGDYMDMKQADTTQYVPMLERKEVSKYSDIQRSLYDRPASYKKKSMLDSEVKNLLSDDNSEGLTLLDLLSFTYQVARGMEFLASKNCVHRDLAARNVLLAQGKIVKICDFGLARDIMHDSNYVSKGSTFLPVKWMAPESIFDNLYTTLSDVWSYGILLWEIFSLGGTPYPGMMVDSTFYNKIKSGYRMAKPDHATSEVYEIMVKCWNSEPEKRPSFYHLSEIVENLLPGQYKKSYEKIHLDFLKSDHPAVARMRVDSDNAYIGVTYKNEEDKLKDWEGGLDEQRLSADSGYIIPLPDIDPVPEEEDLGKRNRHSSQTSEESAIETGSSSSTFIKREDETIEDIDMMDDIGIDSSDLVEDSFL
compound,measurement,setting,value
"COc1cc(-c2cncc(N[C@@H](C)c3cccc(NC(=O)c4cncc(C)c4)c3)n2)ccc1O [PK10453, (S)-N-(3-(1-((6-(4-hydroxy-3-methoxyphenyl)pyrazin-2yl)amino)ethyl)phenyl)-5-methylnicotinamide]","effect on systemic BP, in words",[1],did not have an adverse effect
same,pSTAT3/STAT3 ratio,STAT3,significant reduction
same,IC50,PDGFRbeta,10.1 nM
same,IC50,PDGFRalpha,35 nM
same,decreasing PDGF AA stimulated ppERK1 and ppERK2 formation,[2],equally effective
same,Rd = [(AUClung/AUCplasma)respiratory]/[(AUClung/AUCplasma)IV],[3]; inhalation relative to IV,44.6
same,advantage of inhaled compared to IV administration,[3]; lung/plasma AUC ratio,45 fold
same,RV systolic pressure,"rat MCT+PN model [4]; D8: 8 min 3x/day, 14 days",43.0±3.0 mm Hg
same,ESV,"rat MCT+PN model [4]; D4, mean",408.95 µL
same,ESV,"rat MCT+PN model [4]; D8, mean",488.68 µL
same,pAKT(Thr308)/AKT ratio in lung extracts,"AKT; D4, D8 vs vehicle",not significantly different
same,pAKT(Ser473)/AKT ratio in lung extracts,AKT; treated vs vehicle,significant reduction
same,"IC50 for PDGFAA stimulated phosphorylation of AKT, PK10453 vs imatinib",[5],not significantly different
same,"efficacy in the MCT+PN model, in words",rat MCT+PN model [6],prevented the progression of PAH
same,"body weight, in words",[7],trend to a slower rate of decline in body weight
same,pERK1/ERK1 in lung homogenates,ERK1/2,significant reductions
same,ppERK1/ERK1 in lung homogenates,ERK1/2,significant reductions
